Laboratory results: PMC5218480 (PLoS ONE, 2017)

Tested on: MV-4-11 cells
Assay: Gene expression microarray analysis (Affymetrix PrimeView) and GSEA
Type: cell-based, human
Set-up: RFU PODN (11730768_x_at) / Fold change /veh PODN (11730768_x_at) / RFU LINC00158 (11744669_a_at) / Fold change /veh LINC00158 (11744669_a_at) / RFU DUSP10 (11751237_a_at) / Fold change /veh DUSP10 (11751237_a_at) / RFU ID3 (11757404_x_at) / Fold change /veh ID3 (11757404_x_at) / RFU PLEKHG5 (11737974_s_at) / Fold change /veh PLEKHG5 (11737974_s_at) / RFU LRRC4B (11730491_at) / Fold change /veh LRRC4B (11730491_at) / RFU GIMAP4 (11747438_a_at) / Fold change /veh GIMAP4 (11747438_a_at) / RFU KRT8 (11758183_x_at) / Fold change /veh KRT8 (11758183_x_at) / RFU CNN1 (11734310_a_at) / Fold change /veh CNN1 (11734310_a_at) / RFU VPS37D (11726825_at) / Fold change /veh VPS37D (11726825_at) / RFU C10orf10 (11716522_x_at) / Fold change /veh C10orf10 (11716522_x_at) / RFU KIR2DL2 /// KIR2DL4 /// KIR2DL5A /// KIR2DL5B /// KIR2DS1 /// KIR2DS2 /// KIR2DS3 /// KIR2DS4 /// KIR3DL3 /// KIR3DL3 /// KIR3DS1 (11738374_at) / Fold change /veh KIR2DL2 /// KIR2DL4 /// KIR2DL5A /// KIR2DL5B /// KIR2DS1 /// KIR2DS2 /// KIR2DS3 /// KIR2DS4 /// KIR3DL3 /// KIR3DL3 /// KIR3DS1 (11738374_at) / RFU C1QL1 (11718748_at) / Fold change /veh C1QL1 (11718748_at) / RFU TMPRSS4 (11747572_a_at) / Fold change /veh TMPRSS4 (11747572_a_at) / RFU HAMP (11756126_x_at) / Fold change /veh HAMP (11756126_x_at) / RFU RNFT2 (11725882_a_at) / Fold change /veh RNFT2 (11725882_a_at) / RFU NR4A2 (11747474_a_at) / Fold change /veh NR4A2 (11747474_a_at) / RFU ABCC12 (11746883_a_at) / Fold change /veh ABCC12 (11746883_a_at) / RFU TMEM136 (11760407_x_at) / Fold change /veh TMEM136 (11760407_x_at) / RFU CLDN22 /// WWC2 (11732394_at) / Fold change /veh CLDN22 /// WWC2 (11732394_at) / RFU HLA-DPB1 (11760878_x_at) / Fold change /veh HLA-DPB1 (11760878_x_at) / RFU SPINT1 (11716480_a_at) / Fold change /veh SPINT1 (11716480_a_at) / RFU GAP43 (11754022_s_at) / Fold change /veh GAP43 (11754022_s_at) / RFU A4GNT (11735810_at) / Fold change /veh A4GNT (11735810_at) / RFU PRB3 (11715151_x_at) / Fold change /veh PRB3 (11715151_x_at) / RFU TUBB4B (11761932_at) / Fold change /veh TUBB4B (11761932_at) / RFU CAPN14 (11732068_a_at) / Fold change /veh CAPN14 (11732068_a_at) / RFU TMCC2 (11721928_a_at) / Fold change /veh TMCC2 (11721928_a_at) / RFU IRGQ (11745062_a_at) / Fold change /veh IRGQ (11745062_a_at) / RFU FAM174B (11720279_a_at) / Fold change /veh FAM174B (11720279_a_at) / RFU TMPRSS4 (11748680_a_at) / Fold change /veh TMPRSS4 (11748680_a_at) / RFU FAM212B (11763350_a_at) / Fold change /veh FAM212B (11763350_a_at) / RFU PLEKHG5 (11743358_a_at) / Fold change /veh PLEKHG5 (11743358_a_at) / RFU ZSCAN30 (11745921_a_at) / Fold change /veh ZSCAN30 (11745921_a_at) / RFU CMKLR1 (11741424_a_at) / Fold change /veh CMKLR1 (11741424_a_at) / RFU LOC101060620 /// MAPK8IP1 (11723275_at) / Fold change /veh LOC101060620 /// MAPK8IP1 (11723275_at) / RFU SPTSSB (11747773_x_at) / Fold change /veh SPTSSB (11747773_x_at) / RFU PRSS12 (11739890_at) / Fold change /veh PRSS12 (11739890_at) / RFU BIN1 (11741810_x_at) / Fold change /veh BIN1 (11741810_x_at) / RFU WNT11 (11732464_a_at) / Fold change /veh WNT11 (11732464_a_at) / RFU C10orf10 (11716521_a_at) / Fold change /veh C10orf10 (11716521_a_at) / RFU C5orf56 (11738089_at) / Fold change /veh C5orf56 (11738089_at) / RFU CYB561 (11721691_x_at) / Fold change /veh CYB561 (11721691_x_at) / RFU ANKRD19P (11752326_a_at) / Fold change /veh ANKRD19P (11752326_a_at) / RFU OR2T12 /// OR2T33 /// OR2T8 (11738714_s_at) / Fold change /veh OR2T12 /// OR2T33 /// OR2T8 (11738714_s_at) / RFU VCAN (11748164_a_at) / Fold change /veh VCAN (11748164_a_at) / RFU JSRP1 (11732532_at) / Fold change /veh JSRP1 (11732532_at) / RFU KRTAP10-11 (11738290_x_at) / Fold change /veh KRTAP10-11 (11738290_x_at) / RFU MYO3A (11730013_a_at) / Fold change /veh MYO3A (11730013_a_at) / RFU EBF3 (11725865_a_at) / Fold change /veh EBF3 (11725865_a_at) / RFU CAMK2N1 (11719241_x_at) / Fold change /veh CAMK2N1 (11719241_x_at) / RFU C5orf56 (11738088_a_at) / Fold change /veh C5orf56 (11738088_a_at) / RFU OLFML3 (11715873_a_at) / Fold change /veh OLFML3 (11715873_a_at) / RFU LOC100653217 /// NTM (11731650_a_at) / Fold change /veh LOC100653217 /// NTM (11731650_a_at) / RFU MAPK11 (11762145_a_at) / Fold change /veh MAPK11 (11762145_a_at) / RFU FIZ1 (11724087_x_at) / Fold change /veh FIZ1 (11724087_x_at) / RFU OASL (11726364_x_at) / Fold change /veh OASL (11726364_x_at) / RFU SOX15 (11748057_x_at) / Fold change /veh SOX15 (11748057_x_at) / RFU CD79A (11719716_a_at) / Fold change /veh CD79A (11719716_a_at) / RFU HIST1H1D (11736915_at) / Fold change /veh HIST1H1D (11736915_at) / RFU CASKIN2 (11723855_a_at) / Fold change /veh CASKIN2 (11723855_a_at) / RFU LOC730098 (11760151_x_at) / Fold change /veh LOC730098 (11760151_x_at) / RFU OR4N2 (11742367_at) / Fold change /veh OR4N2 (11742367_at) / RFU PRRT2 (11749266_a_at) / Fold change /veh PRRT2 (11749266_a_at) / RFU SNX32 (11753110_a_at) / Fold change /veh SNX32 (11753110_a_at) / RFU CDHR5 (11726645_a_at) / Fold change /veh CDHR5 (11726645_a_at) / RFU RCAN1 (11760418_a_at) / Fold change /veh RCAN1 (11760418_a_at) / RFU FAM167A (11723789_a_at) / Fold change /veh FAM167A (11723789_a_at) / RFU FAM26E (11764081_at) / Fold change /veh FAM26E (11764081_at) / RFU ISYNA1 (11749810_s_at) / Fold change /veh ISYNA1 (11749810_s_at) / RFU ACY1 (11761880_at) / Fold change /veh ACY1 (11761880_at) / RFU 11764098_at / Fold change /veh 11764098_at / RFU SAMD14 (11745864_x_at) / Fold change /veh SAMD14 (11745864_x_at) / RFU NPB (11741838_a_at) / Fold change /veh NPB (11741838_a_at) / RFU TMPRSS6 (11731388_a_at) / Fold change /veh TMPRSS6 (11731388_a_at) / RFU KRTAP10-2 (11738614_at) / Fold change /veh KRTAP10-2 (11738614_at) / RFU ARHGAP8 /// PRR5-ARHGAP8 (11727945_x_at) / Fold change /veh ARHGAP8 /// PRR5-ARHGAP8 (11727945_x_at) / RFU KRTAP5-7 /// NADSYN1 (11734609_at) / Fold change /veh KRTAP5-7 /// NADSYN1 (11734609_at) / RFU RASL12 (11751679_a_at) / Fold change /veh RASL12 (11751679_a_at) / RFU CDKN2B (11736163_a_at) / Fold change /veh CDKN2B (11736163_a_at) / RFU PRF1 (11729649_at) / Fold change /veh PRF1 (11729649_at) / RFU, ZNF638 /// ZNF638-IT1 / Fold change vs veh, ZNF638 /// ZNF638-IT1 / RFU, PANK3 / Fold change vs veh, PANK3 / RFU, SH3YL1 / Fold change vs veh, SH3YL1 / RFU, ZEB2 / Fold change vs veh, ZEB2 / RFU, NRIP1 / Fold change vs veh, NRIP1 / RFU, PTTG1IP / Fold change vs veh, PTTG1IP / RFU, CAPN2 / Fold change vs veh, CAPN2 / RFU, MED14 / Fold change vs veh, MED14 / RFU, SNORA58 / Fold change vs veh, SNORA58 / RFU, C1orf63 / Fold change vs veh, C1orf63 / RFU, LRRFIP1 / Fold change vs veh, LRRFIP1 / RFU, NDUFAF7 / Fold change vs veh, NDUFAF7 / RFU, SLC12A2 / Fold change vs veh, SLC12A2 / RFU, IBTK / Fold change vs veh, IBTK / RFU, ESF1 / Fold change vs veh, ESF1 / Fold change vs veh, TMEM50B / RFU, TAOK1 / Fold change vs veh, TAOK1 / RFU, ACBD3 / Fold change vs veh, ACBD3 / RFU, TMA16 / Fold change vs veh, TMA16 / RFU, RWDD3 / Fold change vs veh, RWDD3 / RFU, BCAT1 / Fold change vs veh, BCAT1 / RFU, EDEM3 / Fold change vs veh, EDEM3 / RFU, TMEM33 / Fold change vs veh, TMEM33 / RFU, WDR75 / Fold change vs veh, WDR75 / RFU, AHCTF1 / Fold change vs veh, AHCTF1 / RFU, TFRC / Fold change vs veh, TFRC / RFU, ZDHHC17 / Fold change vs veh, ZDHHC17 / RFU, NOM1 / Fold change vs veh, NOM1 / RFU, ARL8B / Fold change vs veh, ARL8B / RFU, ZBTB11 / Fold change vs veh, ZBTB11 / RFU, TAMM41 / Fold change vs veh, TAMM41 / RFU, KIAA1704 /// LOC100996395 / Fold change vs veh, KIAA1704 /// LOC100996395 / RFU, ING1 / Fold change vs veh, ING1 / RFU, TRMT61B / Fold change vs veh, TRMT61B / RFU, FUBP3 / Fold change vs veh, FUBP3 / RFU, TP53 / Fold change vs veh, TP53 / RFU, TNKS2 / Fold change vs veh, TNKS2 / RFU, ZFP14 / Fold change vs veh, ZFP14 / RFU, ACTR2 / Fold change vs veh, ACTR2 / RFU, PPP3R1 / Fold change vs veh, PPP3R1 / RFU, PIK3R1 / Fold change vs veh, PIK3R1 / RFU, HNRNPA1 / Fold change vs veh, HNRNPA1 / RFU, RNF170 / Fold change vs veh, RNF170 / RFU, ZNF28 / Fold change vs veh, ZNF28 / RFU, RNGTT / Fold change vs veh, RNGTT / RFU, OGT / Fold change vs veh, OGT / RFU, BRD1 / Fold change vs veh, BRD1 / RFU, MARS / Fold change vs veh, MARS / RFU, ZNF655 / Fold change vs veh, ZNF655 / RFU, FAHD1 / Fold change vs veh, FAHD1 / RFU, BDP1 / Fold change vs veh, BDP1 / RFU, LRRCC1 / Fold change vs veh, LRRCC1 / RFU, ARID1A / Fold change vs veh, ARID1A / RFU, ZNF146 / Fold change vs veh, ZNF146 / RFU, ZNF330 / Fold change vs veh, ZNF330 / RFU, GPN3 / Fold change vs veh, GPN3 / RFU, C9orf123 / Fold change vs veh, C9orf123 / RFU, N4BP2L2 / Fold change vs veh, N4BP2L2 / RFU, ARFIP1 / Fold change vs veh, ARFIP1 / RFU, FAM179B / Fold change vs veh, FAM179B / RFU, BCL10 / Fold change vs veh, BCL10 / RFU, UHRF1BP1L / Fold change vs veh, UHRF1BP1L / RFU, BET1 / Fold change vs veh, BET1 / RFU, CNOT2 / Fold change vs veh, CNOT2 / RFU, ZNF268 / Fold change vs veh, ZNF268 / Fold change vs veh, ZNF507 / RFU, DGCR2 / Fold change vs veh, DGCR2 / RFU, WDSUB1 / Fold change vs veh, WDSUB1 / Fold change vs veh, HSP90B1 /// MIR3652 / RFU, ADSS / Fold change vs veh, ADSS / RFU, GK / Fold change vs veh, GK / RFU, ZNF148 / Fold change vs veh, ZNF148 / RFU, TAF9 / Fold change vs veh, TAF9 / RFU, SLC1A5 / Fold change vs veh, SLC1A5 / RFU, SLMO2 / Fold change vs veh, SLMO2 / RFU, ABCC4 / Fold change vs veh, ABCC4 / RFU, LOC101060439 /// RAP1B / Fold change vs veh, LOC101060439 /// RAP1B / RFU, RFX7 / Fold change vs veh, RFX7 / RFU, GTPBP10 / Fold change vs veh, GTPBP10 / RFU, CNEP1R1 / Fold change vs veh, CNEP1R1 / RFU, BIVM-ERCC5 /// ERCC5 / Fold change vs veh, BIVM-ERCC5 /// ERCC5 / RFU, ILF3 / Fold change vs veh, ILF3 / RFU 11762660_at / Fold change /veh 11762660_at / RFU VCAN (11757783_s_at) / Fold change /veh VCAN (11757783_s_at) / RFU DDX43 (11728927_at) / Fold change /veh DDX43 (11728927_at) / RFU KRT8 (11758188_x_at) / Fold change /veh KRT8 (11758188_x_at) / RFU NKD1 (11759106_at) / Fold change /veh NKD1 (11759106_at) / RFU SRD5A1 (11742802_a_at) / Fold change /veh SRD5A1 (11742802_a_at) / RFU TPSAB1 /// TPSB2 (11721975_s_at) / Fold change /veh TPSAB1 /// TPSB2 (11721975_s_at) / RFU GSTM3 (11746129_a_at) / Fold change /veh GSTM3 (11746129_a_at) / RFU IL23R (11737362_x_at) / Fold change /veh IL23R (11737362_x_at) / RFU TMEM51 (11727254_a_at) / Fold change /veh TMEM51 (11727254_a_at) / RFU PIWIL2 (11732686_x_at) / Fold change /veh PIWIL2 (11732686_x_at) / RFU ORM1 (11744905_x_at) / Fold change /veh ORM1 (11744905_x_at) / RFU CCDC152 (11743942_at) / Fold change /veh CCDC152 (11743942_at) / RFU ECM1 (11717891_a_at) / Fold change /veh ECM1 (11717891_a_at) / RFU IL23R (11748794_a_at) / Fold change /veh IL23R (11748794_a_at) / RFU TNFAIP8L3 (11732012_x_at) / Fold change /veh TNFAIP8L3 (11732012_x_at) / RFU MBOAT4 (11741988_at) / Fold change /veh MBOAT4 (11741988_at) / RFU 11764193_at / Fold change /veh 11764193_at / RFU TMEM53 (11763286_at) / Fold change /veh TMEM53 (11763286_at) / RFU MAGEB2 (11727129_at) / Fold change /veh MAGEB2 (11727129_at) / RFU TMEM200A (11744735_a_at) / Fold change /veh TMEM200A (11744735_a_at) / RFU CCDC152 (11751479_a_at) / Fold change /veh CCDC152 (11751479_a_at) / RFU FAM211A (11726209_a_at) / Fold change /veh FAM211A (11726209_a_at) / RFU RGS16 (11746705_a_at) / Fold change /veh RGS16 (11746705_a_at) / RFU VCAN (11755009_s_at) / Fold change /veh VCAN (11755009_s_at) / RFU RHOB (11743442_s_at) / Fold change /veh RHOB (11743442_s_at) / RFU RGS16 (11720943_a_at) / Fold change /veh RGS16 (11720943_a_at) / RFU RGS16 (11720944_at) / Fold change /veh RGS16 (11720944_at) / RFU, VPS4B / Fold change vs veh, VPS4B / RFU, CREB1 / Fold change vs veh, CREB1 / RFU, DNAJC13 / Fold change vs veh, DNAJC13 / RFU, GNAQ / Fold change vs veh, GNAQ / RFU, CDK5R1 / Fold change vs veh, CDK5R1 / RFU, ZRANB3 / Fold change vs veh, ZRANB3 / RFU, CUL4A / Fold change vs veh, CUL4A / RFU, CCNY / Fold change vs veh, CCNY / RFU, UFL1 / Fold change vs veh, UFL1 / RFU, COG3 / Fold change vs veh, COG3 / RFU, DIAPH2 / Fold change vs veh, DIAPH2 / RFU, SKA2 / Fold change vs veh, SKA2 / RFU, AFF3 / Fold change vs veh, AFF3 / RFU, LMF1 / Fold change vs veh, LMF1 / RFU, IPO11 / Fold change vs veh, IPO11 / RFU, DFFB / Fold change vs veh, DFFB / RFU, FOXP1 / Fold change vs veh, FOXP1 / RFU, CARD8 / Fold change vs veh, CARD8 / RFU, STRN3 / Fold change vs veh, STRN3 / RFU, ADK / Fold change vs veh, ADK / RFU, RASSF2 / Fold change vs veh, RASSF2 / RFU, WIPF1 / Fold change vs veh, WIPF1 / RFU, LARP1B / Fold change vs veh, LARP1B / RFU, RASA1 / Fold change vs veh, RASA1 / RFU, RB1 / Fold change vs veh, RB1 / RFU, PPFIA1 / Fold change vs veh, PPFIA1 / RFU, MAT2A / Fold change vs veh, MAT2A / RFU, CCT5 / Fold change vs veh, CCT5 / RFU, WDR92 / Fold change vs veh, WDR92 / RFU, CUX1 / Fold change vs veh, CUX1 / RFU, TTC7A / Fold change vs veh, TTC7A / RFU, TMEM135 / Fold change vs veh, TMEM135 / RFU, DEPTOR / Fold change vs veh, DEPTOR / RFU, CPM / Fold change vs veh, CPM / RFU, DNAJB6 / Fold change vs veh, DNAJB6 / RFU, CACNA2D3 / Fold change vs veh, CACNA2D3 / RFU, DTX4 / Fold change vs veh, DTX4 / RFU, TFCP2 / Fold change vs veh, TFCP2 / RFU, GMCL1 /// GMCL1P1 / Fold change vs veh, GMCL1 /// GMCL1P1 / RFU, AEBP2 / Fold change vs veh, AEBP2 / RFU, SNHG1 /// SNORD22 /// SNORD25 /// SNORD26 /// SNORD27 /// SNORD28 /// SNORD29 /// SNORD31 / Fold change vs veh, SNHG1 /// SNORD22 /// SNORD25 /// SNORD26 /// SNORD27 /// SNORD28 /// SNORD29 /// SNORD31 / Fold change (Aza/veh), C12orf56 (ProbeSet 11735607_a_at) / Fold change (ACY-1035/veh), C12orf56 (ProbeSet 11735607_a_at) / Fold change (Aza/veh), FGFR1OP (ProbeSet 11751329_s_at) / Fold change (ACY-1035/veh), FGFR1OP (ProbeSet 11751329_s_at) / Fold change (Aza/veh), VPS36 (ProbeSet 11739960_a_at) / Fold change (ACY-1035/veh), VPS36 (ProbeSet 11739960_a_at) / RFU SYPL1 (11715823_x_at) / Fold change /veh SYPL1 (11715823_x_at) / RFU IGFBP7 (11715501_s_at) / Fold change /veh IGFBP7 (11715501_s_at) / RFU REEP3 (11722064_at) / Fold change /veh REEP3 (11722064_at) / RFU IGLL1 (11728026_x_at) / Fold change /veh IGLL1 (11728026_x_at): dose or concentration left out as unconfirmed
Conditions: MV-4-11 cells, 48 hours

Nc1ccc(-c2cccs2)cc1NC(=O)c1ccc2c(c1)cc(C1CC1)n2CCN1CCOCC1 [ACY-1035]
Fold change /veh SPTSSB (11747773_x_at): 0.98
